{"source": "patent US6734316B2", "about": "“Esters of fatty acids and juvenoid alcohols, and a method of their preparation and use” (Institute of Organic Chemistry and Biochemistry ASCR, priority 2000, dated 2004)", "system": "termite Prorhinotermes simplex", "experiment": "Force feeding test (FF): juvenilizing effect (induction of soldier caste differentiation) on termite pseudergates", "format": "in vivo", "details": "500 ppm in treated food, 60 pseudergates, 16 days, soldier caste induction in percents of surviving individuals", "from_the_text": "A Way of Screening of the Biological Activity of the Compound Claimed in the claim 1 of the General Formula I Against Termite Prorhinotermes Simplex\nTermites have only a sample of food treated with the compound claimed in the claim 1 of the general formula I in the force feeding test (FF), but a choice between a sample of food treated with the compound claimed in the claim 1 of the general formula I and a reference sample of food treated with acetone only. A treatment of the food samples with the compound I claimed in the claim 1 has been made in at least two concentrations, 500 ppm and 5 ppm. A number of 60 pseudergates was exposed to a treatment in each test, and each test is twice repeated. Each test has 16 days duration. The induction of the soldier caste differentiation has been evaluated as the juvenilizing effect. The result is given in percents of the number of surviving individuals. The juvenoid methoprene has been used as the reference compound for testing of the biological activity of the compound I claimed in the claim 1. The results of screening of several structures corresponding the general formula I claimed in the claim 1 in a concentration of 500 ppm are given in Table 1.", "data": [{"compound": "CCCCCCCCCCCCCCCC(=O)O[C@H]1CCCC[C@H]1Cc1ccc(OCCNC(=O)OCC)cc1", "note": "(relative stereo) [Ethyl N-{2-{4-[(cis-2-hexadecanoyloxycyclohexyl)methyl]phenoxy}ethyl} carbamate]", "values": [{"measurement": "Juvenilizing effect [%]", "result": 89.1, "unit": "%"}]}, {"compound": "CCCCCCCCCCCCCCCCCC(=O)O[C@@H]1CCCC[C@H]1Cc1ccc(OCCNC(=O)OCC)cc1", "note": "(relative stereo) [Ethyl N-{2-{4-[(trans-2-octadecanoyloxycyclohexyl)methyl]phenoxy}ethyl} carbamate]", "values": [{"measurement": "Juvenilizing effect [%]", "result": 70.0, "unit": "%"}]}, {"compound": "CCCC(=O)O[C@H]1CCCC[C@H]1Cc1ccc(OCCNC(=O)OCC)cc1", "note": "(relative stereo) [Ethyl N-{2-{4-[(cis-2-butanoyloxycyclohexyl)methyl]phenoxy}ethyl} carbamate]", "values": [{"measurement": "Juvenilizing effect [%]", "result": 86.1, "unit": "%"}]}, {"compound": "CCCCCCCCCCCCCCCC(=O)O[C@@H]1CCCC[C@H]1Cc1ccc(OCCNC(=O)OCC)cc1", "note": "(relative stereo) [Ethyl N-{2-{4-[(trans-2-hexadecanoyloxycyclohexyl)methyl]phenoxy}ethyl} carbamate]", "values": [{"measurement": "Juvenilizing effect [%]", "result": 90.1, "unit": "%"}]}, {"compound": "CCCCCCCCCCCCCCCCCC(=O)O[C@H]1CCCC[C@H]1Cc1ccc(OCCNC(=O)OCC)cc1", "note": "(relative stereo) [Ethyl N-{2-{4-[(cis-2-octadecanoyloxycyclohexyl)methyl]phenoxy}ethyl} carbamate]", "values": [{"measurement": "Juvenilizing effect [%]", "result": 40.0, "unit": "%"}]}, {"compound": "CCCC(=O)O[C@@H]1CCCC[C@H]1Cc1ccc(OCCNC(=O)OCC)cc1", "note": "(relative stereo) [Ethyl N-{2-{4-[(trans-2-butanoyloxycyclohexyl)methyl]phenoxy}ethyl} carbamate]", "values": [{"measurement": "Juvenilizing effect [%]", "result": 87.4, "unit": "%"}]}, {"compound": "COC(C)(C)CCC[C@H](C)C/C=C/C(C)=C/C(=O)OC(C)C", "note": "(racemic) [Methoprene, methoprene, reference compound]", "values": [{"measurement": "Juvenilizing effect [%]", "result": 1.3, "unit": "%"}]}, {"compound": "CCCCCCCC/C=C\\CCCCCCCC(=O)O[C@@H]1CCCC[C@H]1Cc1ccc(OCCNC(=O)OCC)cc1", "note": "(relative stereo) [Ethyl N-{2-{4-[(trans-2-(cis-9-octadecenoyl)oxycyclohexyl)methyl]phenoxy}ethyl} carbamate]", "values": [{"measurement": "Juvenilizing effect [%]", "result": 64.7, "unit": "%"}]}, {"compound": "CCCCCCCC/C=C\\CCCCCCCC(=O)O[C@H]1CCCC[C@H]1Cc1ccc(OCCNC(=O)OCC)cc1", "note": "(relative stereo) [Ethyl N-{2-{4-[(cis-2-(cis-9-octadecenoyl)oxycyclohexyl)methyl]phenoxy}ethyl} carbamate]", "values": [{"measurement": "Juvenilizing effect [%]", "result": 93.7, "unit": "%"}]}]}
